# Experimental data reported in US5281613A, “Heterocyclic compounds” (Imperial Chemical Industries PLC, priority 1991, dated 1994).
# Assays:
# [1] = molecular target: T1, AII receptors (guinea pig adrenal gland cell surface membrane fraction) (Cavia porcellus, UniProt Q9WV26); test: Test A: in vitro displacement of radiolabelled AII binding to guinea pig adrenal gland cell surface membranes; conditions: read-out: IC50 (concentration for 50% displacement of radiolabelled AII binding)
# T1 construct: from tissue; host or cells: guinea pig adrenal gland, cell surface membrane fraction
# T1 sequence (Q9WV26 1-359): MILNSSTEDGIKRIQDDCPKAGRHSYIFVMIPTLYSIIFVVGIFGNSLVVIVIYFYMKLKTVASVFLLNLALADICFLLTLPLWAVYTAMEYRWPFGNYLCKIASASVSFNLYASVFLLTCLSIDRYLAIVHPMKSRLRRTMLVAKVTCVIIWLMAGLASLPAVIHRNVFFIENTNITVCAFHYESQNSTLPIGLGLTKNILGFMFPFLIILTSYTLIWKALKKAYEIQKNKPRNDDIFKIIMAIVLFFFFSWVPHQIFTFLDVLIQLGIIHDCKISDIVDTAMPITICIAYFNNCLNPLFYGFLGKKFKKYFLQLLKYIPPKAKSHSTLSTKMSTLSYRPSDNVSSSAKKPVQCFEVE
# Experimental: The antagonism of one or more of the physiological actions of AII and, in particular, the antagonism of the interaction of AII with the receptors which mediate its effects on a target tissue, may be assessed using one or more of the following, routine laboratory procedures:
# This in vitro procedure involves the incubation of the test compound initially at a concentration of 100 micromolar (or less) in a buffered mixture containing fixed concentrations of radiolabelled AII and a cell surface membrane fraction prepared from a suitable angiotensin target tissue. In this test, the source of cell surface membranes is the guinea pig adrenal gland which is well known to respond to AII. Interaction of the radiolabelled AII with its receptors (assessed as radiolabel bound to the particlate membrane fraction following removal of unbound radiolabel by a rapid filtration procedure such as is standard in such studies) is antagonized by compounds which also bind to the membrane receptor sites and the degree of antagonism (observed in the test as displacement of membrane-bound radioactivity) is determined readily by comparing the receptor-bound radioactivity in the presence of the test compound at the specified test concentration with a control value determined in the absence of the test compound. […]
# [2] = tested on: angiotensin II-induced pressor responses; test: Test C: antagonism of angiotensin II-induced pressor responses in rats; type: in vivo; conditions: iv, rat, i.v. administration
# Description: The antagonism of one or more of the physiological actions of AII and, in particular, the antagonism of the interaction of AII with the receptors which mediate its effects on a target tissue, may be assessed using one or more of the following, routine laboratory procedures: Test C This in vivo test involves using terminally-anaesthetised or conscious rats in which an arterial catheter has been implanted under anaesthesia for the measurement of changes in blood pressure. The AII antagonistic effects of the test compound following oral or parenteral administration, are assessed against angiotensin II-induced pressor responses. To ensure that the effect is specific, the effect of the test compound on vasopressin-induced pressor responses may also be determined in the same preparation.
smiles,measurement,setting,value
"CCc1cc(OCc2ccc3oc(-c4ccccc4-c4nnn[nH]4)c(Br)c3c2)c2c(n1)CCCC2.Cl [Example 8, 4-[(3-bromo-2-(2-(1H-tetrazol-5-yl)phenyl)benzofuran-5-yl)methoxy]-2-ethyl-5,6,7,8-tetrahydroquinoline hydrochloride]",IC50,[1],0.03 µM
same,ED50,[2],8.2 mg/kg
